Laboratory results published in publication PMC10034064, “Expanding the apelin receptor pharmacological toolbox using novel fluorescent ligands” (Frontiers in Endocrinology, 2023).
Bridge positions count the residues as written; N and C are the ends. Peptide text beside a SMILES is read from it.

Assays:
apelin receptor [1] = molecular target: T1, apelin receptor (Homo sapiens, UniProt P35414); assay: Fluorescent ligand binding (saturation, specificity, competition) in CHO-APLNR cells by high content imaging; design: host or cells: CHO-K1
T1 sequence (P35414 1-380): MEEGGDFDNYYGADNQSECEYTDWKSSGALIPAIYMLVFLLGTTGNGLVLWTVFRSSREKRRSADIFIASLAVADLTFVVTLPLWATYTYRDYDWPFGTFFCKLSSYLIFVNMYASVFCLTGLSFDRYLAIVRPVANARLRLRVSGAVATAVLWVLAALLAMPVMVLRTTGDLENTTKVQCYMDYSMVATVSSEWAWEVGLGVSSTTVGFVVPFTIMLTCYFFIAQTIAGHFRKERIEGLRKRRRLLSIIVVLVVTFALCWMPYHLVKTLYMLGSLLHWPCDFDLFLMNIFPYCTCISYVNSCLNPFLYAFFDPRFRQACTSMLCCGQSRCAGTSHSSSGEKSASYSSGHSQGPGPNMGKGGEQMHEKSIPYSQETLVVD
Method: (§1) Cells were seeded in CellCarrier-96 Ultra Plates at a density of ~10 k/well. […] For time-course experiments, CHO-APLNR were treated with 300 nM of the fluorescent ligand for 0 – 90 mins, in the dark at room temperature. For saturation binding experiments, CHO-APLNR were treated with a concentration range of 1 – 300 nM of the fluorescent ligand for 90 mins, in the dark at room temperature. […] Untransfected CHO-K1 cells were also used as controls. […] At the end-points, CHO-APLNR were washed with HBSS before fixation with 4% formaldehyde. CHO-APLNR were washed with HBSS before treatment with Hoechst 33342 nuclear marker prepared at 10 µg/mL in HBSS for 15 mins. […] The software was also used to calculate binding affinities (Ki values) of competing ligands using the Cheng-Prusoff equation.
(§2) For imaging studies, cells in CellCarrier-96 Ultra Plates (PerkinElmer) were imaged using a 40x/NA1.1 water immersion objective. The device was set to measure an image field within each well, where the field is made up of a 4 x 4 or 5 x 5 grid of imaging regions (where each region is 250 x 250 μm in area). After using Z stacking to find an appropriate focal plane, cells were visualised and imaged at a focal depth of 0.5 μm above the bottom of the plate in all experiments. […]
(§3) Following image acquisition, several cell parameters were quantified using in-built Harmony High Content Imaging and Analysis Software (PerkinElmer). […] Intracellular fluorescence was calculated as fluorescence identified in the membrane collar subtracted from whole cell fluorescence. Mean fluorescence intensities were calculated for membrane and whole cell compartments in observed cells in the selected population, given as fluorescence units provided by Harmony software.

[2] = molecular target: T2, human apelin receptor (AGTRL1) (Homo sapiens, UniProt P35414); assay: PathHunter GPCR internalisation assay in U2OS cells; format: cell-based; settings: U2OS cells overexpressing human apelin receptor, 90 mins, n = 3
T2 construct: host or cells: U2OS
T2 sequence (P35414 1-380): T1 sequence (P35414 1-380)
Method: Internalisation of apelin receptor following ligand treatment was determined using an in vitro PathHunter GPCR Internalisation Assay (Eurofins). The manufacturer’s protocol was modified in accordance with previous in-house optimisation. All reagents were provided in the assay kit. U2OS cells overexpressing human apelin receptor (AGTRL1) were seeded in cell plating reagent into 96-well plates and incubated for 48 h at 37°C, 5% CO2, humidified. To test novel fluorescent compounds for agonist activity, wells were treated with test compounds over a concentration range in Cell Plating Reagent to generate an 8-point concentration-response curve. Cells were then incubated for 90 mins at 37°C, 5% CO2, humidified before treatment with Working Detection Solution (Cell Assay Buffer, Substrate Reagent 1, Substrate Reagent 2), and incubation for 2 h at room temperature, protected from light. Plates were read in a chemiluminescence detecting LumiLITE Microplate Reader (DiscoveRx, Fremont, CA, USA). Responses, measured in Relative Light Units (RLU), were fitted to four parameter logistic concentration response curves in GraphPad Prism version 6.07 for Windows (GraphPad Software) to determine compound concentrations inducing half maximal response (EC50), and pD2 values (-log10 EC50) were calculated.

apelin receptor [3] = molecular target: T1, apelin receptor; assay: Fluorescent ligand binding in human kidney tissue sections
Method: Frozen human kidney tissue sections (10 µm), were cut using a cryostat onto microscopy slides. […] Slides were washed with HBSS before fixation with 4% formaldehyde for 3 mins.
Automated fluorescent images (16 bit, 0.325 x 0.325 μm scaling per pixel) of fixed and mounted human tissue stained with fluorescent markers were acquired using an Axio Scan Z1 slide scanner (Zeiss) slide scanner with a Plan-Apochromat 20x/NA0.8 M27 objective lens connected to a Hamamatsu Orca Flash camera. An initial brightfield scan was performed to visualise tissue on slides, and a spline contour tool was used to outline the tissue to minimise the total region imaged. A profile with three fluorescent channels was used; a first channel (blue), with an LED-Module 385 nm light source set at 10% intensity and 10 ms exposure time at a depth of focus of 1.45 μm for Hoechst 33342 nuclear marker (405 nm wavelength); a second channel (green), with an LED-Module 475 nm light source set at 80% intensity and 30 ms exposure time at a depth of focus of 1.64 μm for 488 nm wavelengths; and a third channel (yellow/orange), an LED-Module 567 nm light source set at 80% intensity and 30 ms exposure time at a depth of focus of 1.88 μm for 555 nm wavelengths. Focal depths were determined by the slide scanner’s in-built Z stacking autofocusing. All acquired images were saved and visualised using ZEN software (Zeiss) and/or Orbit Image Analysis (ORBIT) software. Regions of interest were identified using the spline contour, and mean fluorescent signal (in grayscales) was provided by ZEN software (Zeiss).

apelin receptor [4] = molecular target: T1, apelin receptor; assay: Dynamic mass redistribution assay in CHO-APLNR cells; format: cell-based; design: host or cells: CHO-K1; settings: maximal change in peak wavelength value from baseline, n = 3
Method: Apelin receptor downstream signalling was determined using an in vitro BIND technology dynamic mass redistribution assay (SRU Biosystems). CHO-APLNR cells were seeded in 96-well biosensor plates (SRU Biosystems) at a density of 50K/well, maintained in 95 µL feeding media, and incubated for 24 h at 37°C, 5% CO2, humidified. The following day, the plate was loaded onto the SRU Biosystems BIND PROFILER TURBO reader, and left to acclimatise to room temperature for 20 mins before a baseline read was taken over 10 mins. To test novel fluorescent compounds for agonist activity, cells were treated with test compounds (5 µL additions in PBS) over a concentration range to generate an 8-point concentration-response curve. The biosensor plate was read for a subsequent 60 mins. Responses, measured in maximal change in peak wavelength value from baseline (ΔPWV), were fitted to four parameter logistic concentration response curves in GraphPad Prism version 6.07 for Windows (GraphPad Software) to determine compound concentrations inducing half maximal response (EC50), and pD2 values (-log10 EC50) were calculated.

apelin receptor [5] = molecular target: T1, apelin receptor; assay: Radioligand competition binding against [125I]-apelin-13 in human left ventricle homogenate; design: Surgical samples of human left ventricle (HLV) tissue were obtained with informed consent; from tissue; host or cells: human left ventricle homogenate; settings: apelin ligands vs [Pyr1]apelin-13; ELA ligands vs ELA-14
Method: Surgical samples of human left ventricle (HLV) tissue were obtained with informed consent and ethical approval (05/Q104/142). Tissues were snap frozen in liquid nitrogen before storage at -80°C. On the day of preparation, tissue was chopped finely with a razor blade on ice, before subsequent homogenisation using a Polytron Homogenizer (Thomas Scientific), in homogenisation buffer (50 mM Tris-HCl, 5 mM MgCl2, 5 mM EDTA, 1 mM EGTA, 1:500 protease inhibitor cocktail containing aprotinin and amastatin, balanced at pH 7.4) at 4°C. The resulting homogenate was subsequently spun at 1000 xg for 2 mins at 4°C. Supernatant was transferred to another set of tubes (pellet discarded) for a high speed spin at 40,000 xg, for 30 mins at 4°C. Supernatant was then discarded, and the remaining pellet resuspended in 2.5 mL/g of homogenisation buffer, before a second high speed spin at 40,000 xg, for 30 mins at 4°C. The supernatant was discarded, and the remaining pellet was resuspended in HEPES buffer (50 mM HEPES, balanced at pH 7.4 at room temperature) and stored in the freezer at -70°C until use in assays.
The radiolabel has a specific activity of 2200 Ci/mmol. […]
Total binding was determined in the absence of competing fluorescent ligand. […] Radioactivity in pellets was counted using a Cobra II model 5003 gamma counter (Packard). […]

apelin receptor [6] = assay: Fluorescent ligand binding (saturation, specificity, competition) in CHO-APLNR cells by high content imaging; settings: 300 nM apelin647, wild-type CHO-K1 cells without apelin receptor
Method: as §1, §2, §3

[7] = 1 µM fluorescent ligand alone, human kidney sections, 30 mins
[8] = 1 µM fluorescent ligand plus 10 µM [Pyr1]apelin-13 (apelin488) or ELA-14 (ELA488)

CCC(CC)n1c(Cc2cccs2)nc2cc(C(=O)N[C@H](CC(=O)O)CC(C)C)ccc21 [CMF-019] was tested, and the pKi (apelin receptor [1]) was 5.91.

CSCC[C@H](NC(=O)[C@H](CS)NC(=O)[C@H](CCCNC(=N)N)NC(=O)[C@H](CCCNC(=N)N)NC(=O)[C@H](CCC(N)=O)NC(=O)CCOCCOCCOCCOCCNC(=O)c1ccc(-c2c3ccc(=N)c(S(=O)(=O)O)c-3oc3c(S(=O)(=O)O)c(N)ccc23)c(C(=O)O)c1)C(=O)N1CCC[C@H]1C(=O)N[C@@H](CC(C)C)C(=O)N[C@@H](Cc1c[nH]cn1)C(=O)N[C@@H](CO)C(=O)N[C@@H](CCCNC(=N)N)C(=O)N[C@H](C(=O)N1CCC[C@H]1C(=O)N[C@@H](Cc1ccccc1)C(=O)N1CCC[C@H]1C(=O)O)C(C)C [ELA488] was tested, and the Emax [2] was 169693 ± 9461 RLU, the “mean fluorescence in renal blood vessels” value (apelin receptor [3]; [7]) was 18869 ± 5968 grayscales and the “mean fluorescence in tubular structures of the renal cortex” value (apelin receptor [3]; [7]) was 7392 ± 1338 grayscales. The “mean fluorescence in renal blood vessels in the presence of unlabelled parent ligand” value (apelin receptor [3]; [8]) was 7946 ± 3656 grayscales, the “mean fluorescence in tubular structures of the renal cortex in the presence of unlabelled parent ligand” value (apelin receptor [3]; [8]) was 2458 ± 801 grayscales and the Emax (apelin receptor [4]) was 240.32 ± 27.91 ΔPWV. For the same compound, the “binding affinity fold lower than the unlabelled endogenous parent ligand” value (apelin receptor [5]) was ~ 23 fold.

For CSCC[C@H](NC(=O)[C@H](CS)NC(=O)[C@H](CCCNC(=N)N)NC(=O)[C@H](CCCNC(=N)N)NC(=O)[C@H](CCC(N)=O)NC(=O)CCOCCOCCOCCOCCNC(=O)CCCCCC1(C)C(=CC=CC=CC2=[N+](CCCS(=O)(=O)[O-])c3ccc(S(=O)(=O)O)cc3C2(C)C)N(CCCS(=O)(=O)O)c2ccc(S(=O)(=O)O)cc21)C(=O)N1CCC[C@H]1C(=O)N[C@@H](CC(C)C)C(=O)N[C@@H](Cc1c[nH]cn1)C(=O)N[C@@H](CO)C(=O)N[C@@H](CCCNC(=N)N)C(=O)N[C@H](C(=O)N1CCC[C@H]1C(=O)N[C@@H](Cc1ccccc1)C(=O)N1CCC[C@H]1C(=O)O)C(C)C (stereo partly shown) [ELA647], the Emax [2] was 128992 ± 6218 RLU, the Emax (apelin receptor [4]) was 185.23 ± 36.82 ΔPWV and the “binding affinity fold lower than the unlabelled endogenous parent ligand” value (apelin receptor [5]) was ~ 58 fold.

CC(C)C[C@@H]1NC(=O)[C@H](CCCNC(=N)N)NC(=O)[C@@H]2CCCN2C(=O)[C@H](CCCNC(=N)N)NC(=O)[C@@H](NC(=O)[C@H](Cc2c[nH]cn2)NC(=O)[C@H](CCCCN)NC(=O)[C@@H]2CSSC[C@H](N)C(=O)N[C@@H](CCCNC(=N)N)C(=O)N3CCC[C@H]3C(=O)N[C@@H](CCCNC(=N)N)C(=O)N[C@@H](CC(C)C)C(=O)N2)CSSC[C@@H](C(=O)O)NC1=O [MM54] (H-CRPRLCKHCRPRLC-OH; disulfide 1-6, 9-14) gave a Ki (apelin receptor [1]) of 5.75 µM.

CCCC[C@H](NC(=O)[C@@H]1CCCN1C(=O)CNC(=O)[C@H](CCCCN)NC(=O)[C@H](Cc1c[nH]cn1)NC(=O)[C@H](CO)NC(=O)[C@H](CC(C)C)NC(=O)[C@H](CCCNC(=N)N)NC(=O)[C@@H]1CCCN1C(=O)[C@H](CCCNC(=N)N)NC(=O)[C@H](CCC(N)=O)NC(=O)CCOCCOCCOCCOCCNC(=O)CCCCCC1(C)C(=CC=CC=CC2=[N+](CCCS(=O)(=O)[O-])c3ccc(S(=O)(=O)O)cc3C2(C)C)N(CCCS(=O)(=O)O)c2ccc(S(=O)(=O)O)cc21)C(=O)N1CCC[C@H]1C(=O)N[C@@H](Cc1ccc(OCc2ccccc2)cc1)C(=O)O (stereo partly shown) [apelin647] was tested, and the “binding in wild-type CHO-K1 cells” value (apelin receptor [6]) was 0.70 ± 0.45 mean fluorescence.
